Measurements as given in patent US20260048066A1, “TREATMENT OF NEURODEGENERATIVE DISORDERS UTILISING METHYLTHIONINIUM (MT)-CONTAINING COMPOUNDS” (WISTA LABORATORIES LTD, priority 2022, published 2026).
Where two headings read alike, the source gives them in different places.

Legend:
[1] = LUCIDITY trial: plasma HMT/MT levels; type: in vivo; details: human, oral
Method: At Visits 2, 3, 7 and 10, timed morning blood samples are collected for determination of plasma level of the drug. Samples are collected prior to dosing and then at 1, 2, and 4 hours post dose. A single blood sample for apolipoprotein E (ApoE) is obtained from participants who provide informed consent at any time after eligibility determination and prior to Visit 7. Blood may also be analyzed for other biomarkers for possible future research related to determination of potential biomarker predictors or surrogates for treatment response, to be described in a separate protocol.
All patients received 16 mg/day (i.e. 8 mg twice daily) from Visit 7 onwards.
The steady-state plasma concentrations (Visit 4. 1 h post-dose) in each dosing arm was investigated further. Patients were grouped based on plasma concentration.

[2] = tested on: participants with severity ranging from mild cognitive impairment (MCI) to moderate AD; assay: LUCIDITY Phase 3 trial: cognitive (ADAS-cog), functional (ADCS-ADL) and brain atrophy outcomes; type: in vivo, human
From the text: The LUCIDITY trial (NCT03446001; EudraCT: 2017-003558-17) is a Phase 3, randomized, double-blind, placebo-controlled, outpatient trial to evaluate the safety, efficacy, and tolerability of hydromethylthionine mesylate monotherapy in participants with severity ranging from mild cognitive impairment (MCI) to moderate AD. The initial 12-month blinded period is followed by a 12-month, open-label extension period to provide comparative, delayed-start data. There are 76 study sites located in Canada, France, Italy, Poland, Spain, United Kingdom and United States. The protocol was approved by an institutional review board or independent ethics committee at each site.
Following screening, eligible participants are randomized at baseline in a 4:1:4 ratio to receive hydromethylthionine mesylate 16 mg/day, hydromethylthionine mesylate 8 mg/day, or placebo. Following completion of the 52-week double-blind treatment period, all participants continue open-label treatment with hydromethylthionine mesylate 16 mg/day for a further 52 weeks. Participants who were randomized to start on HMTM are considered early-starters; patients who begin on placebo and switch to HMTM at week 52 are considered delayed starters. Unlike a traditional delayed start design, in which participants remain blinded to treatment throughout the trial, treatment during weeks 52 to 104 is open-label, although participants and the site study staff remain blinded to prior treatment assignment. Randomization was stratified by severity (three levels: MMSE 16-19, 20-25, or 26-27, with a target ratio of approximately 2:3:1), prior use of symptomatic treatments (AChEls and/or memantine-two levels: prior use or none), and region (two levels: Canada/USA or UK/Europe). To achieve this target, enrolment was monitored and controlled at the site level for high recruiting sites and capped as needed at the study level. Patients who dropped out after randomization were not replaced, but participants were encouraged to continue with study visits off treatment until the scheduled completion of the double-blind treatment period (Visit 7). Only participants who continued in the study and receive hydromethylthionine mesylate treatment up to and including the last visit (Visit 10) without the addition of concomitant AChEls and/or memantine were eligible for continued treatment in a subsequent expanded access program.
The active and placebo treatment formulations are tablets that look visually the same. Hydromethylthionine mesylate can cause variable urinary discoloration. Therefore, to maintain blinding, the placebo group receives tablets containing a urinary discolourant (MTC, 4 mg) included among blank tablets containing only excipients on a varying schedule with an average frequency of 2/week.
Dosing frequency of 4 mg MTC tablets was on a varying schedule, such that each patient received a 4 mg tablet among the blanks on average twice per week. All subjects (on all arms) received 4 tablets at two times of day. This allowed for 2×4 mg followed by 2×4 mg to give 16 mg/day dose. 4 tablets were also given daily for placebo (2×placebo then 2×placebo) with 4 mg MTC tablets inserted at a rate of 2 per week i.e. 2 MTC tablets out of 28 per week, with remainder being true placebo.
Participants had to be aged less than 90 years and meet the diagnostic criteria for probable AD or MCI-AD and must not have been taking an AChEl or memantine, for at least 60 days at Baseline. They must have been community-dwelling, have a mini mental state exam (MMSE) score of 16-27, and with functional impairment as evidenced by a Clinical Dementia Dating (CDR) stage of 0.5 to 2 at screening. […] All patients must also have at least one study partner, consenting to their own participation; study partners can be changed so long as they have sufficient contact to complete outcome and safety assessments meaningfully and verify compliance with trial treatment. […]

[3] = tested on: participants with severity ranging from mild cognitive impairment (MCI) to moderate AD; assay: LUCIDITY trial: safety and tolerability; type: in vivo, human
Method: All safety assessments are performed during Screening to assess subject eligibility, by an independent qualified medical assessor not involved in efficacy assessments. For the enrolled participants, safety assessments are undertaken at Baseline and at each clinic visit after 4, 13, 26, 39, and 52 weeks during the double-blind treatment period, as well as after 56 (telephone assessment, or on-site in UK), 78, and 104 weeks in the open-label, delayed-start phase; when needed to follow up on a treatment-emergent adverse event (AE); and upon early termination (Table 1). Patients are followed as needed for the resolution or stabilization of any AE, consistent with the investigator's medical judgement.

[4] = Completed hydromethylthionine mesylate Phase 3 studies: estimated treatment effect; type: in vivo, human
Method: Sample size estimations to achieve 90% power (two-sided alpha=0.05) to detect a difference between hydromethylthionine mesylate 16 mg/day and placebo, the primary treatment group comparison in the double-blind treatment period, have been performed for the two co-primary clinical end points, assuming a withdrawal rate of 20% to 25%. The study sample size of approximately 450 is based on the ADCS-ADL23, which has a larger standard deviation (SD) than ADAS-Cog11. Based on an estimated decline in ADCS-ADL23 over 52 weeks in the control arm of 7.7 units with an estimated SD of 8.5 units, the study will have >90% power to detect a reduction in decline of 3.4 units or more. The 3.4-unit effect size is derived from an estimated treatment effect of 5.0±1.6 (mean±standard error) units in the completed hydromethylthionine mesylate studies. Based on an estimated decline of 6.5 units in ADAS-Cog11 over 52 weeks with an estimated SD of 5.9 units, 200 participants per treatment arm provide >90% power to detect a reduction in decline of 2.6 units or more, provided by a conservative value of the estimated treatment effect based on pooled completed Phase 3 studies of −5.2±1.3 (mean±standard error) units in completed hydromethylthionine mesylate studies.

red cells = details: in vivo, administered intravenously; cited from earlier work
[5] = LUCIDITY trial: plasma HMT/MT levels; type: in vivo, human; details: MTC 4 mg twice weekly; after 12 months of treatment
[6] = 16 mg/day, whole study population, MCI to moderate disease

CN(C)c1ccc2c(c1)Sc1cc(N(C)C)ccc1N2 [HMT, N3,N3,N7,N7-tetramethyl-10H-phenothiazine-3,7-diamine] showed a concentration at 1 h ([1]; all dosing arms pooled, steady-state plasma, 1 h post-dose, read-out: Mean value HMT conc) of 0.2 ng/mL, a concentration at 1 h ([1]; all dosing arms pooled, sub-group BLLOQ (values set to zero), 1 h post-dose, read-out: Mean value HMT conc) of 0 ng/mL and a concentration at 1 h ([1]; all dosing arms pooled, sub-group high, 1 h post-dose, read-out: Mean value HMT conc) of 0.41 ng/mL. It also gave a concentration at 1 h ([1]; all dosing arms pooled, sub-group mid, 1 h post-dose, read-out: Mean value HMT conc) of 0.04 ng/mL and a concentration at 1 h ([1]; all dosing arms pooled, sub-group ultralow, 1 h post-dose, read-out: Mean value HMT conc) of 0.01 ng/mL.
In the case of CN(C)c1ccc2c(c1)Sc1cc(N(C)C)ccc1N2.CS(=O)(=O)O.CS(=O)(=O)O [LMTM, N,N,N′,N′-tetramethyl-10H-phenothiazine-3,7-diaminium bis(hydromethanesulfonate)], the concentration at 1 h ([1]; 8 mg/day, 8 mg/day LMTM arm, sub-group BLLOQ (set to zero), steady state 1 h post-dose, read-out: Mean HMT conc) was 0 ng/mL, the concentration at 1 h ([1]; 8 mg/day, 8 mg/day LMTM arm, sub-group high, steady state 1 h post-dose, read-out: Mean HMT conc) was 0.26 ng/mL and the concentration at 1 h ([1]; 8 mg/day, 8 mg/day LMTM arm, sub-group mid, steady state 1 h post-dose, read-out: Mean HMT conc) was 0.05 ng/mL. For the same compound, the concentration at 1 h ([1]; 16 mg/day, 16 mg LMTM/day group, week 4, 1h post dose, read-out: overall mean plasma concentration) was 0.5 ng/mL, the concentration at 1 h ([1]; 16 mg/day, 16 mg/day LMTM arm, sub-group BLLOQ (set to zero), steady state 1 h post-dose, read-out: Mean HMT conc) was 0 ng/mL and the concentration at 1 h ([1]; 16 mg/day, 16 mg/day LMTM arm, sub-group high, steady state 1 h post-dose, read-out: Mean HMT conc) was 0.5 ng/mL. For the same compound, the concentration at 1 h ([1]; 16 mg/day, 16 mg/day LMTM arm, sub-group mid, steady state 1 h post-dose, read-out: Mean HMT conc) was 0.04 ng/mL, the concentration at 1 h ([1]; 16 mg/day, 16 mg/day LMTM arm, sub-group ultralow, steady state 1 h post-dose, read-out: Mean HMT conc) was 0.02 ng/mL and the “disease progression by change in cognitive function (p=0.0008) and brain atrophy (p<0.0001) against matched ADNI subjects” value ([2]; 16 mg/day) was “Statistically significant reductions in disease progression”. For the same compound, the “decline in cognitive and functional measures” value ([2]; 16 mg/day LMTM as monotherapy) was “zero or minimal decline”, the “decline on ADAS-cog11 over the first 12 months” value [2, 6] was 1.3 ADAS-cog11 units and the “decline on ADCS-ADL23 over the first 12 months” value [2, 6] was −1.0 ADCS-ADL23 units. For the same compound, the “cognitive improvement over baseline on the ADAS-cog13 scale” value ([2]; 105 patients with MCI, 16 mg/day, at 6 months (p=0.0002), 12 months (p=0.0391) and 18 months (p=0.0473)) was 2 units, the “cognitive decline in the first 9 months” value ([2]; 147 patients with mild/moderate AD, 16 mg/day) was 2.5 unit and the “cognitive decline over the following 9 months” value ([2]; 147 patients with mild/moderate AD, 16 mg/day, months 9 to 18) was “no further decline”. The “rate of progression of brain atrophy” value ([2]; MCI participants, HMTM 16 mg/day, versus ADNI MCI subjects (p<0.0001)) was “significantly less than in ADNI MCI subjects”, the “mean change on the instrumental activities of daily living subscale of ADCS-ADL” value ([2]; MCI patients, 16 mg/day, at 6, 12 and 18 months) was “remained above the pre-treatment baseline” and the “reduction in functional decline relative to published meta-analysis of placebo decline data” value ([2]; mild/moderate AD, 16 mg/day, ADCS-ADL) was “about 75%”. For the same compound, the “functional decline on the ADCS-ADL scale” value ([2]; mild/moderate AD, 16 mg/day, at 12 months) was −2 units, the “functional decline on the ADCS-ADL scale” value ([2]; mild/moderate AD, 16 mg/day, at 18 months) was −3 units and the “treatment effects on cognitive and functional decline versus placebo decline data of anti-amyloid trials” value ([2]; over 18 months) was “about three-fold larger”. For the same compound, the “treatment-related serious adverse events and amyloid related imaging abnormalities (ARIA)” value [3] was “no treatment-related serious adverse events or evidence of amyloid related imaging abnormalities (ARIA)”, the “estimated treatment effect on ADCS-ADL23 (mean±standard error)” value ([4]; completed hydromethylthionine mesylate studies) was 5.0±1.6 units and the “estimated treatment effect on ADAS-Cog11 (mean±standard error)” value ([4]; pooled completed Phase 3 studies) was −5.2±1.3 units. The “MT uptake into red cells, fold higher compared with MTC” value (red cells) was “approximately 20 fold”.
For CN(C)c1ccc2nc3ccc(N(C)C)cc3[s+]c2c1 [MTC, methylthioninium chloride], the “AD patients with plasma levels above 0.10 ng/ml (Cmax)” value [5] was 89%, the “treatment effect on ADAS-cog compared to expected decline” value ([2]; control group (4 mg MTC twice weekly), high plasma HMT group, 12 months) was -4.73±2.01 and the ADAS-cog decline ([2]; control group (4 mg MTC twice weekly), ultra-low plasma HMT cases, 12 months) was 3.75±0.79.
